Experiment: Storage stability and light sensitivity of trimegestone in powder form
Assay type: physicochemical
Experimental: Trimegestone is thus a molecule which is in itself stable. However, stability problems can appear during the preparation of tablets or if conventional pharmaceutical compositions comprising trimegestone are stored at 40° C. (dry or damp medium) or under more severe conditions. In particular, the appearance of (20S)-17alpha-methyl-7beta-(1-hydroxy-2-oxo-propyl)-oestra-4,9-dien-3-one, the 21R epimer of trimegestone, or even of oxopromegestone is observed under these conditions.

Sensitivity to light: very low sensitivity to light
Stability after storage (3 months at 70° C. under an inert gas): stable
Stability after storage (6 months in a glass pill box at 50° C.): stable
SMILES: C[C@H](O)C(=O)[C@@]1(C)CC[C@H]2[C@@H]3CCC4=CC(=O)CCC4=C3CC[C@@]21C [Trimegestone, (21S)-17alpha-methyl-17beta-(2-hydroxy-1-oxo-propyl)-oestra-4,9-dien-3-one]

Reference: US7732431B2, “Pharmaceutical compositions comprising trimegestone” (aventis pharma SA, priority 1999, dated 2010)
